Measured values: ChEMBL document CHEMBL1208699, “BACE-1 hydroxyethylamine inhibitors using novel edge-to-face interaction with Arg-296” (Bioorg Med Chem Lett, 2010)

Legend:
Format in all cases: ADME, organism-based
Design in all cases: dose 1 mg/kg, route intravenous
[1] = Blood clearance in rat at 1 mg/kg, iv; conditions: whole blood
[2] = Volume of distribution at steady state in rat at 1 mg/kg, iv; conditions: in vivo, read-out: Vdss
[3] = Half life in rat at 1 mg/kg, iv; conditions: in vivo

clearance [1]: 76 mL/min/kg | Vd [2]: 9.3 L/kg | half-life [3]: 42 min
SMILES: CS(=O)(=O)N(c1ccccc1)c1cc(C(=O)N[C@@H](Cc2ccccc2)[C@H](O)CNCc2cccc(C(F)(F)F)c2)cc(C2CCCC2)c1
